The text below walks through data of paper PMC2914114 (Molecular pharmaceutics, 2010).

One may read the Papp as a coefficient for how fast a substance crosses the barrier. A lower Papp goes with slow passage.

One series in a line: Permeability. The note with it: human, pH 7.4.
The conditions of series [1]: calculated from Stokes-Einstein equation for equivalent spheres; cited from earlier work.

On to `OC[C@@H](O)[C@@H](O)[C@H](O)[C@H](O)CO` [[^14C] Mannitol, Mannitol], for which the Papp at 2 h, 0.25 µCi/mL in “Permeability” is 24.7 ± 0.2 ×10⁻⁶ cm/s. Also, the “Molecular Radius” value in series [1] was 4.10 Å. `NC(N)=O` [[^14C] Urea, Urea]: the “PM (permeability across the monolayer itself)” value in the series on hCMEC/D3 cells (pH 7.4) is on record as 5.65 ± 0.08 × 10^−5 cm/sec. The “Molecular Radius” value in series [1] was 2.67 Å. Take `CC(C)[C@H](N)C(=O)OCCOCn1cnc2c(=O)[nH]c(N)nc21` [valacyclovir]: in the series with hCMEC/D3 cells, the “A-B versus B-A relative permeability (PM)” value was “no differences between the A-B and B-A relative permeabilities”.
